Measured values taken from patent US6372723B1, “Compositions and methods for preventing restenosis following revascularization procedures” (Discovery Therapeutics, Inc., priority 1997, dated 2002).

Columns and labels:
[1] = tested on: rabbits with focal femoral atherosclerosis (arterial stenosis); assay: Restenosis after balloon angioplasty in rabbits with focal femoral atherosclerosis; type: in vivo; details: rabbit
Protocol: Focal femoral atherosclerosis is induced in rabbits by air desiccation endothelial injury followed by a 2% cholesterol, 6% peanut oil diet for one month. The degree of arterial stenosis is assessed angiographically. At this time, balloon angioplasty is performed using a 2.5 mm balloon, which is inserted into the region of stenosis and inflated with three 60-second, 10-atmosphere inflations 60 seconds apart. This procedure is similar to that used in humans for clearing coronary blood vessels. Rabbits receive an intravenous infusion of 2-cyclohexylmethylenehydrazinoadenosine (0.6 μg/kg/min) or vehicle starting 10 minutes before the angioplasty procedure and continuing for 1 day following angioplasty. Angiograms are performed before and after angioplasty and at 28 days after angioplasty. These angiograms are analyzed quantitatively for decrease of arterial stenosis. Rabbits are sacrificed 28 days following angioplasty and arteries are analyzed histopathologically and morphometrically.
Example 1 is followed, with the exception that one rabbit group is treated with an effective amount of a combination of (±)-N^6-endonorboman-2-yl-9-methyladenine (0.25 mg/kg/min) and 5′-N-ethylcarboxamidoadenosine (6 μg/kg/min) instead of 2-cyclohexylmethylenehydrazinoadenosine. […]

[2] = tested on: platelets and neutrophils; assay: In vivo activation of neutrophils and platelets after balloon angioplasty, flow cytometry of coronary sinus blood; design: species or system human; details: humans, i.v. infusion 0.6 μg/kg/min from 10 min before to 1 day after angioplasty
Protocol: Humans are subjected to balloon angioplasty, and receive either an intravenous infusion of 2-cyclohexylmethylenehydrazinoadenosine (0.6 μg/kg/min) or vehicle starting 10 minutes before the angioplasty procedure and continuing for 1 day following angioplasty. In vivo activation of neutrophils and platelets are measured by taking a blood sample from the coronary sinus and measuring the expression of surface adhesion molecules on platelets and neutrophils by flow cytometry.

[3] = tested on: humans with stenotic arteries (restenosis); assay: Incidence of restenosis by angiography six months after balloon angioplasty; type: in vivo, human; details: i.v. infusion 0.6 μg/kg/min from 10 min before to 1 day after angioplasty
Protocol: Humans afflicted with impaired blood flow due to stenotic arteries are subjected to balloon angioplasty, and receive either an intravenous infusion of 2-cyclohexylmethylenehydrazinoadenosine (0.6 μg/kg/min) or vehicle starting 10 minutes before the angioplasty procedure and continuing for 1 day following angioplasty. Six months following the balloon angioplasty procedure, angiography is performed on these subjects to examine the blood vessel subjected to the angioplasty.

Compound	degree of arterial stenosis vs vehicle group ([1]; A1 antagonist alone 0.25 μg/kg/min, as Example 1)	degree of arterial stenosis vs vehicle group ([1]; i.v. infusion 0.6 μg/kg/min from 10 min before to 1 day after angioplasty, assessed 28 days after angioplasty)	neutrophils that express surface adhesion molecules vs vehicle group [2]	platelets that express surface adhesion molecules vs vehicle group [2]	incidence of restenosis vs vehicle group [3]
Cn1cnc2c(N[C@@H]3C[C@@H]4CC[C@H]3C4)ncnc21 (racemic) [(±)-N^6-endonorbornan-2-yl-9-methyladenine, reference compound]	significantly less				
Nc1nc(NN=CC2CCCCC2)nc2c1ncn2[C@@H]1O[C@H](CO)[C@@H](O)[C@H]1O [2-cyclohexylmethylenehydrazinoadenosine]		significantly less	significantly fewer	significantly fewer	significantly less
